According to ChEMBL document CHEMBL1201862, “PubChem BioAssay data set” (2004):
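These data come from cells grown in 96-well plates and exposed to compound for 48 hours at five concentrations. The concentration for 50% growth inhibition is given as GI50.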 Activity calls are given as the source filed them. No stated cut-off is given here; in the data, active = GI50 up to about 1.1 µM and inactive = higher.

Legend:
Assay in all cases: inhibition of tumour cell growth, NCI panel, 48 h
HCC 2998 = system: HCC 2998
MOLT-4 = system: MOLT-4
HCT-15 = system: HCT-15
A549 = system: A549
K562 = system: K562
MDA-MB-231 = system: MDA-MB-231
SNB-75 = system: SNB-75
HCT-116 = system: HCT-116
RPMI-8226 = system: RPMI-8226
UACC-257 = system: UACC-257
CAKI-1 = system: CAKI-1
NCI-H522 = system: NCI-H522
SK-MEL-28 = system: SK-MEL-28
U-251 = system: U-251
EKVX = system: EKVX
BT-549 = system: BT-549
NCI-H23 = system: NCI-H23
OVCAR-5 = system: OVCAR-5
UACC-62 = system: UACC-62
Malme-3M = system: Malme-3M

SMILES: C=CC(c1ccccc1)C1(O)c2cccc(O)c2C(=O)c2c(O)cccc21 (stereo not given)
- GI50 (HCC 2998): 10.8 µM (inactive)
- GI50 (MOLT-4): 11.9 µM (inactive)
- GI50 (HCT-15): 10.8 µM
- GI50 (A549): 14.7 µM (inactive)
- GI50 (K562): 6.64 µM (inactive)
- GI50 (MDA-MB-231): 18.3 µM (inactive)
- GI50 (SNB-75): 20.5 µM (inactive)
- GI50 (HCT-116): 11.5 µM (inactive)
- GI50 (RPMI-8226): 18.5 µM (inactive)
- GI50 (UACC-257): 17.8 µM (inactive)
- GI50 (CAKI-1): 16.7 µM (inactive)
- GI50 (NCI-H522): 11.7 µM (inactive)
- GI50 (SK-MEL-28): 18.8 µM (inactive)
- GI50 (U-251): 11.7 µM (inactive)
- GI50 (EKVX): 16.3 µM (inactive)
- GI50 (BT-549): 16.7 µM (inactive)
- GI50 (NCI-H23): 13.4 µM (inactive)
- GI50 (OVCAR-5): 22.1 µM (inactive)

SMILES: CC(C)(C)NC(=O)N1N=C(c2ccccc2)C1c1ccccc1 (stereo not given)
- GI50 (HCC 2998): > 100 µM (inactive)
- GI50 (HCT-15): 23.9 µM
- GI50 (A549): 31.5 µM (inactive)
- GI50 (MDA-MB-231): 95.9 µM (inactive)
- GI50 (UACC-62): 52.6 µM (inactive)
- GI50 (SNB-75): 87.1 µM (inactive)
- GI50 (HCT-116): 19.7 µM (inactive)
- GI50 (RPMI-8226): 22.5 µM (inactive)
- GI50 (UACC-257): 25.5 µM (inactive)
- GI50 (CAKI-1): 26.4 µM (inactive)
- GI50 (NCI-H522): 19.6 µM (inactive)
- GI50 (Malme-3M): 25.3 µM (inactive)
- GI50 (SK-MEL-28): 48.3 µM (inactive)
- GI50 (U-251): 69.3 µM (inactive)
- GI50 (EKVX): 42.6 µM (inactive)
- GI50 (BT-549): 29.9 µM (inactive)
- GI50 (NCI-H23): 35.9 µM (inactive)
- GI50 (OVCAR-5): > 100 µM (inactive)

SMILES: CSc1nc(SC)c2c(C)cn(Cc3ccccc3)c2n1
- GI50 (HCC 2998): 44.1 µM (inactive)
- GI50 (MOLT-4): 39 µM (inactive)
- GI50 (HCT-15): 70.1 µM
- GI50 (A549): > 100 µM (inactive)
- GI50 (MDA-MB-231): > 100 µM (inactive)
- GI50 (UACC-62): > 100 µM (inactive)
- GI50 (SNB-75): 79.6 µM (inactive)
- GI50 (HCT-116): 69.2 µM (inactive)
- GI50 (RPMI-8226): 85.9 µM (inactive)
- GI50 (CAKI-1): > 100 µM (inactive)
- GI50 (NCI-H522): 98.4 µM (inactive)
- GI50 (Malme-3M): > 100 µM (inactive)
- GI50 (SK-MEL-28): > 100 µM (inactive)
- GI50 (U-251): > 100 µM (inactive)
- GI50 (EKVX): > 100 µM (inactive)
- GI50 (BT-549): > 100 µM (inactive)
- GI50 (NCI-H23): > 100 µM (inactive)
- GI50 (OVCAR-5): > 100 µM (inactive)

SMILES: O=C1/C(=C\c2ccco2)Oc2ccccc21
- GI50 (HCC 2998): > 100 µM (inactive)
- GI50 (MOLT-4): 23.7 µM (inactive)
- GI50 (HCT-15): > 100 µM
- GI50 (A549): > 100 µM (inactive)
- GI50 (K562): > 100 µM (inactive)
- GI50 (MDA-MB-231): > 100 µM (inactive)
- GI50 (UACC-62): > 100 µM (inactive)
- GI50 (SNB-75): > 100 µM (inactive)
- GI50 (HCT-116): > 100 µM (inactive)
- GI50 (RPMI-8226): 89.5 µM (inactive)
- GI50 (UACC-257): > 100 µM (inactive)
- GI50 (CAKI-1): > 100 µM (inactive)
- GI50 (NCI-H522): > 100 µM (inactive)
- GI50 (SK-MEL-28): > 100 µM (inactive)
- GI50 (U-251): > 100 µM (inactive)
- GI50 (EKVX): 42.9 µM (inactive)
- GI50 (BT-549): > 100 µM (inactive)
- GI50 (NCI-H23): > 100 µM (inactive)
- GI50 (OVCAR-5): > 100 µM (inactive)

SMILES: Cc1ccc(S(=O)(=O)/N=C2/N(C)CCCS2(=O)=O)cc1
- GI50 (HCC 2998): > 100 µM (inactive)
- GI50 (MOLT-4): > 100 µM (inactive)
- GI50 (HCT-15): > 100 µM
- GI50 (A549): > 100 µM (inactive)
- GI50 (K562): > 100 µM (inactive)
- GI50 (MDA-MB-231): 18 µM (inactive)
- GI50 (UACC-62): > 100 µM (inactive)
- GI50 (SNB-75): > 100 µM (inactive)
- GI50 (HCT-116): > 100 µM (inactive)
- GI50 (RPMI-8226): > 100 µM (inactive)
- GI50 (UACC-257): > 100 µM (inactive)
- GI50 (CAKI-1): > 100 µM (inactive)
- GI50 (NCI-H522): > 100 µM (inactive)
- GI50 (SK-MEL-28): > 100 µM (inactive)
- GI50 (U-251): > 100 µM (inactive)
- GI50 (EKVX): > 100 µM (inactive)
- GI50 (BT-549): > 100 µM (inactive)
- GI50 (NCI-H23): > 100 µM (inactive)
- GI50 (OVCAR-5): > 100 µM (inactive)

SMILES: COc1cccc(/C=C2\N=C(c3ccccc3)OC2=O)c1
- GI50 (HCC 2998): 49.7 µM (inactive)
- GI50 (HCT-15): 34 µM
- GI50 (A549): > 100 µM (inactive)
- GI50 (K562): 71.1 µM (inactive)
- GI50 (MDA-MB-231): > 100 µM (inactive)
- GI50 (UACC-62): > 100 µM (inactive)
- GI50 (SNB-75): 16.1 µM (inactive)
- GI50 (HCT-116): > 100 µM (inactive)
- GI50 (RPMI-8226): 35.1 µM (inactive)
- GI50 (UACC-257): > 100 µM (inactive)
- GI50 (CAKI-1): > 100 µM (inactive)
- GI50 (NCI-H522): 12.3 µM (inactive)
- GI50 (SK-MEL-28): > 100 µM (inactive)
- GI50 (U-251): 63.7 µM (inactive)
- GI50 (EKVX): > 100 µM (inactive)
- GI50 (BT-549): 40.6 µM (inactive)
- GI50 (NCI-H23): > 100 µM (inactive)
- GI50 (OVCAR-5): > 100 µM (inactive)
